This is an account of results in patent publication US6365634B1, “Naturally occurring compounds and their derivatives as cyclooxygenase 2 and/or 5-lipoxygenase inhibitors” (C-P Technology Limited Partnership, priority 1997, dated 2002).

Structures are written as SMILES.

Series [1] deals with human keratinocyte PGE2 production. In words: Cell-based COX II assay: PGE2 production by cultured human foreskin keratinocytes (enzyme immunoassay). Particulars: 5, 1.0, 0.2 and 0.04 uM, 24 hours, high calcium medium. As for the experimental part:
The ability of dehydroabietic acid methyl ester to inhibit the enzymatic activities of COX II and 5-LO was tested using primary cultures of human foreskin keratinocytes. Briefly, human keratinocytes were plated in 48-well plates (Nunc) at an initial density of 2.5×10^4 cells per well. The cultures were maintained in medium 154XP (Cascade Biologics) to which human keratinocyte growth supplement (Cascade Biologics) was added. Cultures were plated initially in medium 154XP containing 0.07 mM CaCl2. Upon reaching […] confluency, the media was exchanged with high calcium medium 154XP containing 1.2 mM CaCl2. Previous studies have shown that an increase in extracellular Ca^2+concentration induces the differentiation of cultured keratinocytes with a concomitant increase in the expression of COX II protein and COX II mRNA with no apparent effect on COX I expression (Leong, J., Hughes-Fulford, M., Rakhlin, A., Maclouf, J., and Goldyne, M., (1996), Exp. Cell Res., V224, p79). Twenty-four hours after switching to the high calcium media, duplicate wells were treated with dehydroabietic acid methyl ester serially diluted in ethanol to produce final concentrations of 5, 1.0, 0.2, and 0.04 uM. Companion cultures were treated with an identical dilution series of the Merck COX II-specific inhibitor DFU. Twenty-four hours later, samples were removed from each treated well (as well as vehicle-treated control wells) and the amount of PGE2 (a product of the COX II pathway) was quantified using a PGE2-specific enzyme immunoassay (Cayman Chemical). ), As was done with the previously described biochemical assays (COX I, COX II, 5-LO, and 15-LO), the percent inhibition was calculated based on a comparison between vehicle treated control cultures and cultures treated with dehydroabietic acid methyl ester or DFU (see Fractionation and Bioassay Analysis of Fractions Derived from Extract-8 above).
The ability of 4-cumylphenol to inhibit the enzymatic activity of COX II was tested using primary cultures of human foreskin keratinocytes. These cell studies were performed in an identical manner to the studies described in Example 6. […] Twenty-four hours later, samples were removed from each treated well (as well as vehicle-treated control wells) and the amount of PGE2 (a product of the COX II pathway) was quantified using a PGE2-specific enzyme immunoassay (Cayman Chemical). ), as was done with the previously described COX I, COX II, and 15-LO biochemical assays (see Example 2B). The percent inhibition was calculated based on a comparison between vehicle treated control cultures and cultures treated with 4-cumylphenol or DFU. […]
To evaluate the biological activities of 3-methoxy aniline, sufficient quantities of the compound were synthesized as detailed in Example 1C (above). […]

The subject of series [2] is human keratinocytes. In words: Lactate dehydrogenase (LDH) release toxicity assay. In kind it is cell-based. Particulars: highest value of any culture treated with 5, 1.0, 0.2 or 0.04 uM. As for the experimental part:
To address the possibility that the inhibition of both PGE2 and LTB4 production by human keratinocytes treated with dehydroabietic acid methyl ester was […], a cell lactate dehydrogenase toxicity assay (Fisher Scientific) was performed. Briefly, lactate dehydrogenase (LDH) is found intracellularly and is released only in response to toxic stimuli and/or cell death. The amount of LDH released into the media of cultured cells is indicative of the degree of toxicity occurring in that culture. To do the assay, 48-well plates of cultured human keratinocytes (as described above for the PGE2 assay) were prepared and treated with the same concentrations of dehydroabietic acid methyl ester as described above for the PGE2 and LTB4 assays. One hour prior to harvesting culture media samples from wells treated with dehydroabietic acid methyl ester, duplicate wells were treated with a cell lysis buffer (Fisher Scientific) that caused 100% cell death to occur in the treated wells. After culture media samples were collected from all wells, the amount of LDH present in each was determined using a colorometric assay (Fisher Scientific). […] The amount of LDH released into the media of cultures treated with dehydroabietic acid methyl ester as well as vehicle-control media was determined using the colorometric assay and expressed as a percentage of that released by the 100% cell death wells.
To address the possibility that the inhibition of PGE2 production by human keratinocytes treated with 4-cumylphenol was due to toxicity, a cell lactate dehydrogenase toxicity assay (Fisher Scientific) was performed. […] After culture media samples were collected from all wells, the amount of LDH present in each was determined using a colorometric assay (Fisher Scientific). […] The amount of LDH released into the media of cultures treated with dehydroabietic acid methyl ester as well as vehicle-control media was determined using the colorometric assay and expressed as a percentage of that released by the 100% cell death wells. […]

In series [3] the test system is human keratinocytes. The series can be described thus: Microscopic examination of treated keratinocyte cultures. In kind it is cell-based.
A further series has as its target T1, human recombinant COX II (Homo sapiens, UniProt P35354).
T1 construct: purchased Oxford Chemical
T1 sequence (P35354 18-604): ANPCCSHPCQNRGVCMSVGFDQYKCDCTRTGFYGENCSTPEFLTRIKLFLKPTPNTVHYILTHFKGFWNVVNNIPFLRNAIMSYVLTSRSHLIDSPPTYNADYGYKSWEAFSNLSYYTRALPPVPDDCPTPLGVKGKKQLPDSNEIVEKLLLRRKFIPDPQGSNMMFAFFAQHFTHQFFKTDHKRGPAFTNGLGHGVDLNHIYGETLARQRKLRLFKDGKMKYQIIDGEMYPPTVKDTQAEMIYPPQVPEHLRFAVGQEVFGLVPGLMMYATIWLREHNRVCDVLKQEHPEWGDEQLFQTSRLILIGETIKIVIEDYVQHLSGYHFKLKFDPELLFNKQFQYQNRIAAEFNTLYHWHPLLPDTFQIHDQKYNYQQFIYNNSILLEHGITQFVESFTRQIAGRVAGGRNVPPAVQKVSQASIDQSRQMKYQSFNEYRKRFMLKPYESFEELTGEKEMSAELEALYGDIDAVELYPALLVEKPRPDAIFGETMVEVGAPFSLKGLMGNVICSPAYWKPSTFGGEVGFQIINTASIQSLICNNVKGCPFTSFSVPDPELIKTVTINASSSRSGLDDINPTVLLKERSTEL
In words: COX II biochemical assay (3H-arachidonic acid conversion, TLC quantitation). The note with it: read-out: Percent Inhibition of COX II.

Series [4] concerns human keratinocyte LTB4 production. The series can be described thus: Cell-based 5-LO assay: LTB4 production by cultured human keratinocytes (enzyme immunoassay). Particulars: 5, 1.0, 0.2 and 0.04 uM, 24 hours, high calcium medium. From the text: In addition to assessing the effect of dehydroabietic acid methyl ester on the production of PGE2 by human keratinocytes, the human keratinocyte culture system was also used to assess for the inhibition of LTB4 production. Keratinocytes have not been used as extensively as other cell types for 5-LO studies, however, human keratinocytes produce appreciable amounts of LTB4 and production of this eicosanoid by cultured keratinocytes is inhibited by known inhibitors of 5-LO (see FIG. 11). To assess for inhibition of LTB4 production, human keratinocytes were cultured as described above. Following introduction of the high calcium media, the identical dilution series of dehydroabietic acid methyl ester as described above in the PGE2 study was added to duplicate wells of keratinocytes. Twenty-four hours later culture media samples were removed from each well and the amount of LTB4 in each sample determined using an enzyme immunoassay specific for LTB4 (Cayman Chemical). As was done with the PGE2 assay described above, the percent inhibition was calculated based on a comparison between vehicle treated control cultures and cultures treated with dehydroabietic acid methyl ester or Rev 5901 (a specific 5-LO inhibitor; Cayman Chemical).

Experimental for human recombinant COX II: Two units of recombinant COX II enzyme (corresponding to 0.8 ug total protein) was added followed by 5 uL aliquots of the peat bog extracts yielding a final concentration of the peat extracts of 25 ug/ml. All samples were run in duplicate. […] Reactions were initiated by the addition of ^3H-arachidonic acid (DuPont-NEN) at a final concentration of 50 uM. The reactions were maintained for 5 minutes at 37° C. and stopped by the addition of ice-cold methanol/acetic acid (10:1 v/v).
The assessment of cyclooxygenase activity (both COX I and II) in the presence and absence of the peat bog extracts was based on the quantitation of tlhe radiolabeled arachidonic acid metabolites prostaglandin A2 (PGA2), PGE2, and PGF2-alpha. To do this, a 50 uL sample of each reaction solution was separated via TLC on LK6DF silica plates co-spotted with arachidonic acid, PGA2, and PGF2-alpha and developed in hexane/isopropyl alcohol/ acetic acid (85:15:1 v/v). The bands were visualized by UV-vis or I2 staining and scraped into scintillation vials for quantitation. […] The total enzyme activity (At), the corrected enzyme activity in the presence of an inhibitor (Ai), and % inhibition were calculated by the following equations:
3) Percent Inhibition=100 (1−Ai/ At)

Regarding `CC1(C)OC(=O)C(c2cccc(F)c2)=C1c1ccc(S(C)(=O)=O)cc1` [DFU, reference compound], in series [1], the “inhibition of PGE2 production by cultured human keratinocytes” value is recorded as “Dose-dependent inhibition”.

Take `COc1cccc(NC(=O)C(C)(C)C)c1` [Fraction 3-M-A, propanamide, N-(3-methoxyphenyl)2,2-dimethyl]: the “inhibition of PGE2 production by cultured human keratinocytes” value in series [1] is given as “inhibited the production of PGE2”. In addition, in the series on human keratinocytes [2], the “percent toxicity (LDH released) versus the 100% cell death control” value is recorded as no more than 10%. In the series with human keratinocytes [3], the “toxicity when treated cultures were examined microscopically” value is given as “lack of toxicity”. In the case of `CS(=O)(=O)Nc1ccc([N+](=O)[O-])cc1Oc1ccccc1` [Nimesulide, reference compound], at human recombinant COX II, the inhibition at 250 µM came to 13.3%.

With `CCCCCC(O)c1cccc(OCc2ccc3ccccc3n2)c1` (stereo not drawn) [REV 5901, reference compound], in series [4], the “inhibition of LTB4 production by cultured human keratinocytes” value is listed as “dose-dependent inhibition”.

One may read the inhibition as how much of the control response was suppressed.
